One assay has as its system Botrytis cinerea. Briefly: Fungicidal efficacy trial (% control) on Botrytis cinerea, synergy by Colby's equation. It is filed as cell-based. To be noted: concentration 0.01 mg/L, observed efficacy. The text has this:
[table] Colby's equation was used to determine the fungicidal effects expected from the mixtures. The following equation was used to calculate the expected activity of mixtures containing two active ingredients, A and B: Expected=A+B−(A×B/100) • A=observed efficacy of active component A at the same concentration as used in the mixture; • B=observed efficacy of active component B at the same concentration as used in the mixture.

In assay [1] the test system is spores of Botrytis cinerea. Briefly: EC50 for in vitro inhibition of 50% of fungal population of spores of Botrytis cinerea. It is filed as cell-based. The protocol: As used herein, according to the Fungicide Resistance Action Committee (FRAC), ‘EC50’ is defined as the fungicide dose that inhibits growth by 50% when compared with a nonamended control.
The EC50 values were evaluated to determine a lower concentration of the fungicides and the combination to achieve in vitro inhibition of 50% of fungal population of spores of Botrytis cinerea.

Like-named read-outs stand apart in the source and are kept apart here.

What is called EC50 is the concentration at which the effect is half-maximal. With `O=C1C2CC=CCC2C(=O)N1SC(Cl)(Cl)Cl` (stereo not shown) [Captan], in the assay on Botrytis cinerea, the “% control” value worked out at 11.54%. The EC50 in assay [1] (read-out: EC50) was determined as 0.15 µg/mL.

Turning to `COc1ccnc(C(=O)N[C@H]2COC(=O)[C@H](Cc3ccccc3)[C@@H](OC(=O)C(C)C)[C@H](C)OC2=O)c1OCOC(=O)C(C)C` [Fenpicoxamide], the “% control” value with Botrytis cinerea amounted to 15.45%. Besides, the EC50 in assay [1] worked out at 0.46 µg/mL.
